pIC50: −log10 of the molar value.
Legend:
[1] = system: choroidal neovascularization (CNV); experiment: Laser-induced CNV model, histological evaluation (CNV area, CD31-positive cell count); type: in vivo, Long Evans rats
Experimental: (§1) Thermal laser infrared light (diode laser 810 nm) at 200 mW for 0.075 seconds was delivered to the fundus of Long Evans rats using a slit lamp and a slit lamp adaptor. A total of 6 lesions with 75 μm diameter were placed in a circular pattern surrounding the optic disc on the posterior pole.
Intravitreal injection was performed immediately after laser photocoagulation. Briefly, three days prior to the injection, 0.3% Ciloxan ointment was applied to the eye once daily. At the time of injection, the eye pocket was irrigated and the conjunctiva swabbed with 1.0% Betadine solution. […] The injection began when the bevel of the needle faced down and reached the vitreous about 1-2 mm in depth with the visual aid of a dissecting microscope. After injection, topical 0.3% Ciloxan ointment was applied to the eye once daily for 2 days.
Eyes were enucleated and chorioretinal tissues that contained the CNV lesions prepared and fixed for about 18 hours in formic acid alcohol, and then replaced with 70% alcohol until the specimen was processed to wax by a standard method. Slides were stained with mouse anti rat CD31 (Chemicon, UK) by a standard immunohistochemistry protocol. This briefly consisted of removal of endogenous peroxidase enzymes with methanol and hydrogen peroxide, primary antibody as above, and the secondary donkey antibody anti mouse conjugated to biotin. Streptavidin ABC and Vector VIP substrate (Vector labs, Burlingame Calif.) were further added. Haematoxylin was used as a counterstain. Representative images before and after the center of each CNV lesion were taken using the 20× objective of an Olympus BX61 microscope fitted with a Spot RT colour camera (Diagnostic instruments, MI USA). Each image was applied to the standard image analysis macro in the software Image pro to identify the mean of lesion area for each CNV and the mean of CD31 positive cell counts (i.e. endothelial cells) within the CNV lesion area. All measurements were generated by two independent readers masked to the treatments. The data was analyzed in Excel and GraphPad Prism. The 80% correlation found between readers was deemed acceptable.

[2] = system: choroidal neovascularization (CNV); experiment: Laser-induced CNV model, fluorescein angiography evaluation of leaky CNV; type: in vivo, Long Evans rats; details: for incidence of developing leaky CNV 2 weeks after laser photocoagulation: vehicle 83%
Experimental: as §1
(§2) Intravitreal injection was performed immediately after laser photocoagulation. Briefly, three days prior to the injection, 0.3% Ciloxan ointment was applied to the eye once daily. At the time of injection, the eye pocket was irrigated and the conjunctiva swabbed with 1.0% Betadine solution. A 30-gauge needle connected to a 10-μL Hamilton syringe that contained 5 μL carboxymethylcellulose (CMC)-based Rapamycin suspension (0.5, 5, 10 or 40 mg/mL) or CMC vehicle alone was inserted 1 mm posterior to the corneoscleral limbus. The injection began when the bevel of the needle faced down and reached the vitreous about 1-2 mm in depth with the visual aid of a dissecting microscope. After injection, topical 0.3% Ciloxan ointment was applied to the eye once daily for 2 days.
FA was performed on the 14th day after intravitreal injection of Rapamycin. Briefly, a 25-gauge butterfly catheter was placed in the tail vein on an anesthetized animal and a Heparin-Lock solution (0.50 mL of 10,000 IU/mL Heparin Sodium with 0.95 mL 0.9% Saline) was used to fill the catheter line to maintain intravenous access. A dose of 10 mg/kg of Diofluor 10% (Fluorescein Sodium 10%) was delivered through the tail vein, followed by a flush of sterile saline to ensure full delivery of Diofluor 10%. An infusion pump (Becton-Dickinson) connected to a 60 cc syringe was used to infuse the Diofluor 10% at a constant rate of 6 mL/min (8.4-13.2 pounds per square inches) to allow for consistency in the synchronization of the fluorescein bolus injection and the angiogram acquisition. Photographs were taken with a fluorescence fundus camera at 1-10, 30, 60, 90, 180, and 300 sec after Diofluor 10% administration. The leakiness of CNV was assessed by two independent readers masked to the treatment.

[3] = system: Ser235/236 phosphorylation of S6 ribosomal protein (downstream target of mTOR); experiment: Pharmacodynamic evaluation: S6 phosphorylation in chorioretinal tissues by western blot; type: in vivo, rat
Experimental: as §2
Upon euthanasia of the animal, the eyes were cut along the equator, separating the anterior and posterior segments. The vitreous was removed and the remaining back of eye (with intact retina, choroid and sclera) was placed in a labeled Nalgene Cryotube, immediately immersed in liquid nitrogen, and stored at −80° C. until ready to use. Upon lysis, tubes containing tissue were brought to room temperature to thaw. […] Protein concentration of each sample was determined using the Pierce BCA Protein Determination Kit (Pierce, CAT #: 23225) and BSA as a standard. Samples were analyzed by SDS-PAGE, followed by western blotting. […] Bound antibodies were detected using ECL or ECL plus Western Blotting Reagents. Densitometric evaluation was performed on blots scanned by Bio-Rad Multi-Analyst Software, and analyzed in MS Excel and GraphPad Prism.
Rapamycin inhibits mTOR activity, which then down-regulates Ser235/236 phosphorylation of the downstream target of mTOR, the S6 ribosomal protein. In order to evaluate the pharmacodynamic response of intravitreally administered rapamycin in the eye, the serine phosphorylation of S6 protein extracted from chorioretinal tissues was analyzed by western blot, and standardized by the total amount of S6 protein. […]

[4] = system: THP-1 cells (monocytic cell line); experiment: TNFalpha release from Lipopolysaccharide and IFNgamma treated THP-1 cells; type: cell-based; details: Homo sapiens
Experimental: (§3) Targeted tissue concentrations were estimated from in vitro experiments assessing the inhibitory effects of rapamycin on endothelial cell proliferation and cytokine release from immune cells. Human umbilical endothelial cells were activated with Vascular Endothelial Growth Factor (VEGF) and incubated with various concentrations of rapamycin. Cell proliferation was evaluated by quantifying [3}H-thymidine incorporation after 48 hours. […] The IC50 for the release of TNFalpha from Lipopolysaccharide and IFNgamma treated THP-1 cells (monocytic cell line) was ˜1 nM and the IC50 for the release of IFNgamma from human peripheral blood T cells stimulated with phytohemagglutanin was ˜2 nM.

[5] = system: Human umbilical endothelial cells; experiment: VEGF-activated endothelial cell proliferation, [3H]-thymidine incorporation; type: cell-based; details: [3H]-thymidine incorporation after 48 hours
Experimental: as §3

[6] = system: human peripheral blood T cells; experiment: IFNgamma release from phytohemagglutanin-stimulated T cells; type: cell-based; details: T-cell, T cells stimulated with phytohemagglutanin
Experimental: as §3

Compound | inhibition of CNV area ([1]; TA, intravitreal 200 μg) | inhibition of endothelial cell count ([1]; TA, intravitreal 200 μg) | incidence of leaky CNV at the 14-day follow-up ([2]; intravitreal dose of 200 μg, positive control) | level of phosphorylated Ser235/236 on S6 ribosomal protein, standardized by total S6 ([3]; chorioretinal tissues, day 1, 3 and 7 post-dosing, vs untreated or vehicle-injected eyes, FIG. 10) | onset of inhibitory effect on S6 phosphorylation ([3]; intravitreal, rat) | duration of inhibitory effect on S6 phosphorylation ([3]; post-dosing, longest follow-up timepoint) | reduction in CNV area compared to the vehicle group ([1]; 0.5 μg intravitreal) | reduction in CNV area compared to the vehicle group ([1]; 5 μg intravitreal) | reduction in CNV area compared to the vehicle group ([1]; 50 μg intravitreal) | overall reduction in the number of endothelial cells within the CNV area compared to the vehicle group ([1]; 50 μg, 5 μg and 0.5 μg intravitreal, overall) | response in the rat model of laser-induced CNV ([2]; 5 μg intravitreally injected) | incidence of developing leaky CNV 2 weeks after laser photocoagulation ([2]; single intravitreal injection of 0.5 μg rapamycin in CMC) | incidence of developing leaky CNV 2 weeks after laser photocoagulation ([2]; single intravitreal injection of 5 μg rapamycin in CMC) | incidence of developing leaky CNV 2 weeks after laser photocoagulation ([2]; single intravitreal injection of 50 μg rapamycin in CMC) | pIC50 [4] | pIC50 [5] | pIC50 [6]
CC1(C)O[C@@H]2C[C@H]3[C@@H]4CCC5=CC(=O)C=C[C@]5(C)[C@@]4(F)[C@@H](O)C[C@]3(C)[C@]2(C(=O)CO)O1 [triamcinolone acetonide] | approximately 50% | ~60% | 10% |  |  |  |  |  |  |  |  |  |  |  |  |  | 
CO[C@H]1C[C@@H]2CC[C@@H](C)[C@@](O)(O2)C(=O)C(=O)N2CCCC[C@H]2C(=O)O[C@H]([C@H](C)C[C@@H]2CC[C@@H](O)[C@H](OC)C2)CC(=O)[C@H](C)/C=C(\C)[C@@H](O)[C@@H](OC)C(=O)[C@H](C)C[C@H](C)/C=C/C=C/C=C/1C [rapamycin, Rapamycin] |  |  |  | significantly reduced | ≤ 24 h | 7 days | 15% | 55% | 50% | 50-60% | nearly a complete response | 65% | 5% | 2% | ~9.00 | 7.16 | ~8.70
